PubChem BioAssay (NCI)
Several values for one entry are separate records, joined by “and”; a condition that tells them apart may be missing. Identical values can stand only once.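 Protocol summary: plate cells (96-well), add compound at 5 concentrations, incubate 48 h, interpolate endpoints linearly. Here, GI50 denotes the concentration required for 50% inhibition of growth. TGI: total growth inhibition.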

Columns and labels:
Test in all cases: growth of human tumour cells (NCI), 48 h
[1] = tested on: SF-268 CNS
[2] = tested on: BT-549 breast
[3] = tested on: HS 578T breast
[4] = tested on: TK-10 renal
[5] = tested on: A549 NSCLC
[6] = tested on: MOLT-4 leukemia
[7] = tested on: ACHN renal
[8] = tested on: OVCAR-4 ovarian
[9] = tested on: U251 CNS
[10] = tested on: MCF7 breast

Structure (SMILES) | GI50 [1] | TGI [1] | GI50 [2] | TGI [2] | GI50 [3] | TGI [3] | GI50 [4] | TGI [4] | GI50 [5] | TGI [5] | GI50 [6] | TGI [6] | GI50 [7] | TGI [7] | GI50 [8] | TGI [8] | GI50 [9] | TGI [9] | GI50 [10] | TGI [10]
O=C(O)Cc1cccc2c(=O)cc(-c3ccccc3)oc12 | 814 µM | > 1000 µM | > 1000 µM | 250 µM and > 1000 µM | 415 µM | 209 µM and 889 µM | 990 µM | > 1000 µM | 728 µM | 250 µM and > 1000 µM | 288 µM | > 824 µM | 813 µM | > 1000 µM | 546 µM | 250 µM and > 1000 µM | 360 µM | > 1000 µM | 581 µM | 250 µM and > 1000 µM
CCC(CC)n1cnc2c(-c3cnc(N)cn3)nc(N3CC4CCC(C3)O4)nc21 | 0.566 µM | > 100 µM | 0.108 µM | 2.5 µM | 0.209 µM | 1.61 µM | 0.168 µM | 5.15 µM | 0.405 µM | > 100 µM | 0.322 µM | 53.4 µM | 0.324 µM | > 100 µM | 0.169 µM | 3.17 µM | 1.3 µM | > 100 µM | 0.156 µM | > 100 µM
CCN1CCN(CCNc2nccc(-c3c(-c4ccc(F)c(O)c4)nc4occn34)n2)S1(=O)=O | 4.84 µM | > 100 µM | 2.97 µM | > 100 µM | 6.75 µM | > 100 µM | 35.6 µM | > 100 µM | 4.58 µM | > 100 µM | 2.56 µM | > 100 µM | 3.44 µM | > 100 µM | 4.59 µM | > 100 µM | 13.3 µM | > 100 µM | 3.82 µM | > 100 µM
COc1ccccc1C#Cc1ccccc1C#Cc1ccc(OCCCCCCOc2ccccc2C#Cc2ccccc2C#Cc2ccccc2OC)cc1 | > 100 µM | > 100 µM | > 100 µM | > 100 µM | > 100 µM | > 100 µM | > 100 µM | > 100 µM | > 100 µM | > 100 µM | > 100 µM | > 100 µM | > 100 µM | > 100 µM | > 100 µM | > 100 µM | > 100 µM | > 100 µM | > 100 µM | > 100 µM
O=C1C2CCN(CC2)C1CN1CCOCC1 (stereo unspecified) | – | 34.3 µM | – | 4.53 µM | – | 82.1 µM | – | 13.2 µM | – | 37.5 µM | – | 13.8 µM | – | 4.18 µM | – | 10.7 µM | – | 26.2 µM | – | 10.8 µM
CN(C)CCNc1ccc2ncn3c4ccc(O)cc4c(=O)c1c23 | – | 10.7 µM | – | 28.1 µM | – | 8.19 µM | – | 21.8 µM | – | 4.26 µM | – | 10.5 µM | – | 4.6 µM | – | 4.89 µM | – | 3.97 µM | – | 4.91 µM
Cc1ccc2c(C(C[N+](=O)[O-])c3ccccc3)c(-c3ccccc3)[nH]c2c1 (stereo unspecified) | 73.3 µM | > 95 µM | 34 µM | > 95 µM | 16.8 µM | 94.3 µM | > 95 µM | > 95 µM | 18 µM | > 95 µM | 34 µM | > 95 µM | 57.2 µM | > 95 µM | 42.4 µM | > 95 µM | 32 µM | > 95 µM | 13.5 µM | > 95 µM
C[C@@H]1C[C@H](N)C[C@H](c2ccncc2NC(=O)c2ccc(F)c(-c3c(F)cccc3F)n2)C1 | 10.8 µM and > 10 µM | 25.3 µM and > 10 µM | 10.3 µM and 5.17 µM | 22.6 µM and > 10 µM | 13.4 µM and > 10 µM | 49 µM and > 10 µM | 13.1 µM and > 10 µM | 26.8 µM and > 10 µM | 15.9 µM and > 10 µM | 31.6 µM and > 10 µM | 4.91 µM and 5.14 µM | 20.6 µM and > 10 µM | 12.1 µM and > 10 µM | 24.5 µM and > 10 µM | 9.39 µM and > 10 µM | 22 µM and > 10 µM | 12 µM and > 10 µM | 24.7 µM and > 10 µM | 10.8 µM and > 10 µM | 25 µM and > 10 µM
CC1SC(c2ccccc2Cl)N(NC(=O)C(O)c2ccccc2)C1=O (stereo unspecified) | > 100 µM | > 100 µM | > 100 µM | > 100 µM | 85.3 µM | > 100 µM | 31 µM | > 100 µM | 52.3 µM | > 100 µM | 50.4 µM | > 100 µM | 55.8 µM | > 100 µM | > 100 µM | > 100 µM | 66.9 µM | > 100 µM | 54.6 µM | > 100 µM
CC(C)(C)OC(=O)C1C(=O)NC(=O)CC1CC(OCc1ccccc1)C(OCc1ccccc1)C(COCc1ccccc1)OCc1ccccc1 (stereo unspecified) | 46.8 µM and 16.1 µM | > 100 µM | – | 79.5 µM and > 100 µM | – | > 100 µM | – | > 100 µM | 26 µM and 5.23 µM | > 100 µM and 28.5 µM | 14.1 µM and 3.86 µM | > 100 µM and 28.1 µM | 60.2 µM and 18.8 µM | > 100 µM | – | > 100 µM | 19.6 µM and 5.39 µM | > 100 µM and 56.3 µM | 27 µM and 7.19 µM | > 100 µM and 89.6 µM
O=C(c1c(F)c(F)c(F)c(F)c1F)c1c(F)c(F)c(F)c(F)c1F | – | 7.8 µM | – | 6.68 µM | – | > 26.6 µM | – | 2.47 µM | – | 15.4 µM | – | 0.764 µM | – | 3.09 µM | – | 3.14 µM | – | 2.41 µM | – | 2.58 µM
COc1ccc2cc(-c3cnc4nonc4n3)ccc2c1 | 8.59 µM | > 100 µM | 4.39 µM | > 100 µM | 1.23 µM | > 100 µM | 10.6 µM | > 100 µM | 3.33 µM | > 100 µM | 1.92 µM | > 100 µM | 4.33 µM | > 100 µM | 5.99 µM | > 100 µM | 3.21 µM | 37.3 µM | 0.415 µM | > 100 µM
C=CCC1(C(=O)OC)CCC/C(=N\O)C1 (stereo unspecified) | – | > 10 µM | – | > 10 µM | – | > 10 µM | – | > 10 µM | – | > 10 µM | – | > 10 µM | – | > 10 µM | – | > 10 µM | – | > 10 µM | – | > 10 µM
O=C1c2ccccc2C(=O)N1CCc1ncc(-c2ccccc2)[nH]1 | – | > 100 µM | – | > 100 µM | – | > 100 µM | – | > 100 µM | – | > 100 µM | – | > 100 µM | – | > 100 µM | – | > 100 µM | – | > 100 µM | – | > 100 µM
